# Assay results reported in ChEMBL document CHEMBL3045101, “Hypoglycemic effect of astaxanthin from shrimp waste in alloxan-induced diabetic mice” (2012).
# Activity calls are given as the source filed them. No cut-off for these calls is given here.
# What was measured:
# Mus musculus [1] = test: Hypoglycemic activity in Mus musculus Kunming (mouse) assessed as reduction of AUC of plasma glucose level at 5 to 10 mg/kg, po qd for 7 days by oral glucose tolerance test; assay type: functional, organism-based
# Mus musculus [2] = test: Hypoglycemic activity in Mus musculus Kunming (mouse) assessed as reduction of 16 hr fasting plasma glucose level at 5 mg/kg, po qd for 7 days by oral glucose tolerance test (reference value: 6.20 +/- 0.63 mmol/l); assay type: functional
# Mus musculus [3] = test: Hypoglycemic activity in Mus musculus Kunming (mouse) assessed as reduction of 16 hr fasting plasma glucose level at 10 mg/kg, po qd for 7 days by oral glucose tolerance test (reference value: 6.20 +/- 0.63 mmol/l); assay type: functional
# Mus musculus [4] = test: Antidiabetic activity in Mus musculus Kunming (mouse) alloxan-induced diabetic model assessed as reduction of 16 hr fasting plasma glucose level at 10 mg/kg, po qd for 7 days (reference value: 6.11 +/- 0.64 mmol/l); assay type: functional
# Mus musculus [5] = test: Antidiabetic activity in Mus musculus Kunming (mouse) alloxan-induced diabetic model assessed as reduction of 16 hr fasting plasma glucose level at 5 mg/kg, po qd for 7 days (reference value: 6.11 +/- 0.64 mmol/l); assay type: functional
# Mus musculus [6] = test: Hypoglycemic activity in Mus musculus Kunming (mouse) assessed as reduction of 16 hr fasting plasma glucose level at 2.4 mg/kg, po qd for 7 days by oral glucose tolerance test (reference value: 6.20 +/- 0.63 mmol/l); assay type: functional
SMILES,Activity (Mus musculus [1]),Activity (Mus musculus [2]),Activity (Mus musculus [3]),Activity (Mus musculus [4]),Activity (Mus musculus [5]),Activity (Mus musculus [6])
CC1=C(/C=C/C(C)=C/C=C/C(C)=C/C=C/C=C(C)/C=C/C=C(C)/C=C/C2=C(C)C(=O)[C@@H](O)CC2(C)C)C(C)(C)C[C@H](O)C1=O [ASTAXANTHIN],Active,6.14 mmol/L,6.02 mmol/L,10.11 mmol/L,13.03 mmol/L,
Cc1ccc(S(=O)(=O)NC(=O)NN2CC3CCCC3C2)cc1 (configuration not stated) [GLICLAZIDE],,,,,,4.69 mmol/L
CN(C)C(=N)NC(=N)N [METFORMIN],,,,9.98 mmol/L,,
